Assay results reported in patent US9309224B2 (Deciphera Pharmaceuticals, LLC, priority 2013, dated 2016).

Experiments:
[1] = target: T1, unphosphorylated c-FMS kinase (uFMS, Seq. ID no. 1) (Homo sapiens, UniProt P07333); test: uFMS kinase assay (pyruvate kinase/lactate dehydrogenase coupled); type: biochemical; details: ATP 500 μM
T1 construct: purchased Millipore
T1 sequence (P07333 538-972): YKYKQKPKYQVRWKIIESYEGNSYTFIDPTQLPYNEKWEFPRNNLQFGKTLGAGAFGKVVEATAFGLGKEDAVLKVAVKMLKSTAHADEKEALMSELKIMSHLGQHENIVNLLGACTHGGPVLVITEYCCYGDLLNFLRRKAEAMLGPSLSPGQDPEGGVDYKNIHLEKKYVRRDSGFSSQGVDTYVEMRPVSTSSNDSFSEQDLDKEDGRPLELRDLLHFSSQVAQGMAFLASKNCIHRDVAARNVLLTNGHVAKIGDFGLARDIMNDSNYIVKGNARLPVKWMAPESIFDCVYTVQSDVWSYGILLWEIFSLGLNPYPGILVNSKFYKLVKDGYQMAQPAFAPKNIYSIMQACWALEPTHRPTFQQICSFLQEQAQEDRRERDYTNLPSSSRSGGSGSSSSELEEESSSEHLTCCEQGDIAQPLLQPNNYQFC

[2] = target: T2, unphosphorylated c-KIT kinase (uKIT, Seq. ID no. 2) (Homo sapiens, UniProt P10721); test: uKit kinase assay (pyruvate kinase/lactate dehydrogenase coupled); type: biochemical; details: ATP 2000 μM
T2 construct: uKit with N-terminal GST fusion used for
Procedure: In this assay, the oxidation of NADH (thus the decrease at A340 nm) was continuously monitored spectrophometrically. […] The inhibition reaction was started by mixing serial diluted test compound with the above reaction mixture. The absorption at 340 nm was monitored continuously for 4 hours at 30° C. on Synergy 2 plate reader (BioTech).

[3] = target: T3, unphosphorylated PDGFRβ kinase (uPDGFRβ, Seq. ID No. 3) (Homo sapiens, UniProt P09619); test: Unphosphorylated PDGFRβ kinase assay (pyruvate kinase/lactate dehydrogenase coupled); type: biochemical; details: ATP 500 μM
T3 construct: purchased DeCode
Excerpt: Unphosyhorylated PDGFRβ (uPDGFRβkinase (Seq. ID No. 3) assay

M-NFS-60 cells = test: M-NFS-60 cell proliferation assay; type: cell-based; details: 67 h incubation, resazurin
Procedure: M-NFS-60 Cell Proliferation Assay A serial dilution of test compound was dispensed into a 384-well black clear bottom plate (Corning, Corning, N.Y.). Two thousand five hundred cells were added per well in 50 μL complete growth medium. […] IC50 values were calculated from a series of percent inhibition values determined at a range of inhibitor concentrations using software routines as implemented in the GraphPad Prism software package.

osteoclast precursors = test: Osteoclast tartrate-resistant acid phosphatase assay; type: cell-based; details: 7-14 days, RANKL and M-CSF
Procedure: Diluted compound was transferred to a 384-well black clear bottom plate. Two-thousand five hundred osteoclast precursors (Lonza, Walkersville, Md.) were added per well in growth media containing Receptor Activator of Nuclear Factor Kappa-beta ligand (RANKL) and M-CSF (R&D Systems, Minneapolis, Minn.). Plates were incubated for 7-14 days at 37 degrees Celsius, 5% CO2, and 95% humidity to allow differentiation of osteoclast precursors. […] Tartrate-resistant acid phosphatase activity in the supernatant samples was determined using an acid phosphatase assay kit (Sigma, St. Louis, Mo.). Absorbance was measured at 550 nm using a plate reader. Data was analyzed using Prism software (Graphpad, San Diego, Calif.) to calculate IC50 values.

[4] = target: T4, phospho-FMS in THP-1 cells (Homo sapiens, UniProt P07333); test: Phospho-FMS ELISA assay in THP-1 cells; type: cell-based; details: 4 hours compound, M-CSF stimulated; read-out: pFMS inhibition in THP-1 cells
T4 construct: endogenous in cells; host or cells: THP-1 (ATCC TIB-202)
T4 sequence (P07333 20-972): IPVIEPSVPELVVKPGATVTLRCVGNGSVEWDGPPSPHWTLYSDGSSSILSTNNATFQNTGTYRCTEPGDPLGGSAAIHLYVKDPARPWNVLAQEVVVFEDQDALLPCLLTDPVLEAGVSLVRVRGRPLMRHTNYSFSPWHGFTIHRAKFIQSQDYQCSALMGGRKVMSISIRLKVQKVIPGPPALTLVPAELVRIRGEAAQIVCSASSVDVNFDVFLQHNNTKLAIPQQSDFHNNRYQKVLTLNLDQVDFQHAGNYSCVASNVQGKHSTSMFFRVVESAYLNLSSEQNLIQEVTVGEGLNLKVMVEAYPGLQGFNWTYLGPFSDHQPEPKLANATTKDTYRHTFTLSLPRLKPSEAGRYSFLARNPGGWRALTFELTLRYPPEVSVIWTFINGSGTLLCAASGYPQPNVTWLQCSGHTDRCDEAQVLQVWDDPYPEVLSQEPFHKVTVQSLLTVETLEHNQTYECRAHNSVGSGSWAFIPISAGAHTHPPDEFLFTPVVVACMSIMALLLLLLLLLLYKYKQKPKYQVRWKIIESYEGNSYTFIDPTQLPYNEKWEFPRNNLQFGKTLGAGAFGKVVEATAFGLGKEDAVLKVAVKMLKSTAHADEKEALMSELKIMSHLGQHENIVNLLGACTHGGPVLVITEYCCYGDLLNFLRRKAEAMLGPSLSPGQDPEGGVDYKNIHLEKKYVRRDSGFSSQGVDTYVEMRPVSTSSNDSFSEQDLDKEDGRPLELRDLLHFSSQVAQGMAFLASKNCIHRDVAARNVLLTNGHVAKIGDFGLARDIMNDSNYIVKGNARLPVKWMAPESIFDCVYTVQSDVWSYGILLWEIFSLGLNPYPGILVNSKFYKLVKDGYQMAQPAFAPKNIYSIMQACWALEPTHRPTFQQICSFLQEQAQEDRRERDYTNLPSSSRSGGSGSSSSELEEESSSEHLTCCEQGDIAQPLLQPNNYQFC
Procedure: In a separate 96 well black clear bottom plate, one hundred and fifty thousand THP-1 cells were added per well in 100 μL in assay medium. Fifty microliters of diluted compound was then added to the cells. […] Lysates were prepared and used to perform the phospho-FMS ELISA as described by the manufacturer (catalog #DYC3268, R & D Systems, Minneapolis, Minn.). GraphPad Prism was used to calculate IC50 values obtained from data generated from the ELISA assay.

T2 sequence (P10721 with tags, fused parts or gaps): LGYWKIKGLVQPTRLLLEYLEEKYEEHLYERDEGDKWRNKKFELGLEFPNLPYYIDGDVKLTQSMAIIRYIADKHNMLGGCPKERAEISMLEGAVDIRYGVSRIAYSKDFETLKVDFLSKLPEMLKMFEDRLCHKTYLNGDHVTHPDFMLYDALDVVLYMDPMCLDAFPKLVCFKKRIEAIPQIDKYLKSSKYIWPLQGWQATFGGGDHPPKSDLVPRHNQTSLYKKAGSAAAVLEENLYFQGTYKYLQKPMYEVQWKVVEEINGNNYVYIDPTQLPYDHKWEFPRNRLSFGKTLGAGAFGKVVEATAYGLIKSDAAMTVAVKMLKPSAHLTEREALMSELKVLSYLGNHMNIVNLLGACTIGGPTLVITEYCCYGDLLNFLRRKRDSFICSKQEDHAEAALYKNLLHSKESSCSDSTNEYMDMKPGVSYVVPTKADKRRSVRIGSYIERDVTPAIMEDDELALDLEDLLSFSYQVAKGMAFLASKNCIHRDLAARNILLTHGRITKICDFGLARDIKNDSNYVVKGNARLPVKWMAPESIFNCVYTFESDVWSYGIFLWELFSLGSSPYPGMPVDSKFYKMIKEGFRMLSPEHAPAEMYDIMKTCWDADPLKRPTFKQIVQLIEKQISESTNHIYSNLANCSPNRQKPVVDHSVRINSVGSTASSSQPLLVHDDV
T3 sequence (P09619 557-1105): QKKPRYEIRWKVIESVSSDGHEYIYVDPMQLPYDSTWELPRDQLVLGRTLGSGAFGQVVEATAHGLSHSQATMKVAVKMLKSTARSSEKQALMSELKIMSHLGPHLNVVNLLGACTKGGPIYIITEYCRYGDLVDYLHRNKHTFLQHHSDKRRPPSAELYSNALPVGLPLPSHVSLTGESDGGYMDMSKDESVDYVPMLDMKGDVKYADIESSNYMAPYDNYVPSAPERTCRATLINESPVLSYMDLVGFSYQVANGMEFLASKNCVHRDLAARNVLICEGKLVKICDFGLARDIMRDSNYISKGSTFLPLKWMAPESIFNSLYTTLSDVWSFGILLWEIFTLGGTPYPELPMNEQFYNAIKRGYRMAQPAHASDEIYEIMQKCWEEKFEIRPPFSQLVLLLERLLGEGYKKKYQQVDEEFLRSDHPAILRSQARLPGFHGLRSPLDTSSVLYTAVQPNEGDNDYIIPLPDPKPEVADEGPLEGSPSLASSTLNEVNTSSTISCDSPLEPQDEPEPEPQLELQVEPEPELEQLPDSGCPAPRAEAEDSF

Row | SMILES | IC50 [1] [nM] | IC50 [2] [nM] | IC50 [3] [nM] | IC50 (M-NFS-60 cells) [nM] | IC50 (osteoclast precursors; Osteoclast) [nM] | IC50 [4] [nM] | IC50 (osteoclast precursors) [nM]
1 | COC(C)(C)C(=O)NC(=O)Nc1cc(C)c(Oc2ccnc(NC(C)=O)c2)cn1 [Example 38, N-((5-((2-acetamidopyridin-4-yl)oxy)-4-methylpyridin-2-yl)carbamoyl)-2-methoxy-2-methylpropanamide] | < 10 | 100 to 1000 | 10 to 100 | < 10 | 10 to 100 | < 10 | 
2 | COC1(C(=O)NC(=O)Nc2ccc(Oc3ccnc(NC(C)=O)c3)cn2)CC1 [Example 27, N-((5-((2-acetamidopyridin-4-yl)oxy)pyridin-2-yl)carbamoyl)-1-methoxycyclopropanecarboxamide] | 10 to 100 | > 1000 | 100 to 1000 | 10 to 100 | < 10 | 10 to 100 | 
3 | CCC(=O)Nc1cc(Oc2ccc(NC(=O)NC(=O)C(C)(C)C)nc2C)ccn1 [Example 12, N-((6-methyl-5-((2-propionamidopyridin-4-yl)oxy)pyridin-2-yl)carbamoyl)pivalamide] | < 10 | > 1000 | 100 to 1000 | < 10 | 10 to 100 | 10 to 100 | 
4 | CC(=O)Nc1cc(Oc2ccc(NC(=O)NC(=O)C3(C)CC3)nc2)ccn1 [Example 19, N-((5-((2-acetamidopyridin-4-yl)oxy)pyridin-2-yl)carbamoyl)-1-methylcyclopropanecarboxamide] | 10 to 100 | 100 to 1000 | 100 to 1000 | 10 to 100 | < 10 | 10 to 100 | 
5 | CN(C)C1CCN(C(=O)Nc2cc(Oc3ccc(NC(=O)NC(=O)C(C)(C)C)nc3)ccn2)CC1 [Example 76, 4-(dimethylamino)-N-(4-((6-(3-pivaloylureido)pyridin-3-yl)oxy)pyridin-2-yl)piperidine-1-carboxamide] | < 10 | > 1000 | 100 to 1000 | 10 to 100 | < 10 | < 10 | 
6 | CN(C)C(=O)Nc1cc(Oc2ccc(NC(=O)NC(=O)C3(C)CCOCC3)nc2)ccn1 [Example 65, N-((5-((2-(3,3-dimethylureido)pyridin-4-yl)oxy)pyridin-2-yl)carbamoyl)-4-methyltetrahydro-2H-pyran-4-carboxamide] | < 10 | 100 to 1000 | 100 to 1000 | 10 to 100 | < 10 | 10 to 100 | 
7 | CN(C)[C@H]1CCN(C(=O)Nc2cc(Oc3ccc(NC(=O)NC(=O)C(C)(C)C)nc3)ccn2)C1 [Example 47, (S)-3-(dimethylamino)-N-(4-((6-(3-pivaloylureido)pyridin-3-yl)oxy)pyridin-2-yl)pyrrolidine-1-carboxamide] | < 10 | > 1000 | 10 to 100 | < 10 | < 10 | < 10 | 
8 | CNC(=O)Nc1cc(Oc2ccc(NC(=O)NC(=O)C(C)(C)C)nc2)ccn1 [Example 79, N-((5-((2-(3-methylureido)pyridin-4-yl)oxy)pyridin-2-yl)carbamoyl)pivalamide] | < 10 | > 1000 | 100 to 1000 | 100 to 1000 | 10 to 100 | 10 to 100 | 
9 | CNC(=O)c1cc(Oc2ccc(NC(=O)NC(=O)C3(C)CCOCC3)nc2)ccn1 [Example 70, N-methyl-4-((6-(3-(4-methyltetrahydro-2H-pyran-4-carbonyl)ureido)pyridin-3-yl)oxy)picolinamide] | 100 to 1000 | > 1000 | > 1000 | 100 to 1000 | 10 to 100 | 10 to 100 | 
10 | Cc1nc(NC(=O)NC(=O)C(C)(C)C)ccc1Oc1ccnc(NC(=O)N2CCN(C)CC2)c1 [Example 69, 4-methyl-N-(4-((2-methyl-6-(3-pivaloylureido)pyridin-3-yl)oxy)pyridin-2-yl)piperazine-1-carboxamide] | < 10 | > 1000 | > 1000 | < 10 | < 10 | < 10 | 
11 | Cc1nc(NC(=O)NC(=O)C(C)(C)C)ccc1Oc1ccnc(NC(=O)N2CCOCC2)c1 [Example 63, N-(4-((2-methyl-6-(3-pivaloylureido)pyridin-3-yl)oxy)pyridin-2-yl)morpholine-4-carboxamide] | < 10 | > 1000 | > 1000 | 10 to 100 | < 10 | 10 to 100 | 
12 | CC(=O)Nc1cc(Oc2ccc(NC(=O)NC(=O)CC3CCOCC3)nc2)ccn1 [Example 6, N-((5-((2-acetamidopyridin-4-yl)oxy)pyridin-2-yl)carbamoyl)-2-(tetrahydro-2H-pyran-4-yl)acetamide] | 10 to 100 | > 1000 | 10 to 100 | 100 to 1000 | 10 to 100 |  | 
13 | CN(C)CC(=O)Nc1cc(Oc2ccc(NC(=O)NC(=O)C(C)(C)C)nc2)ccn1 [Example 54, N-((5-((2-(2-(dimethylamino)acetamido)pyridin-4-yl)oxy)pyridin-2-yl)carbamoyl)pivalamide] | 10 to 100 | > 1000 | > 1000 | 100 to 1000 | 100 to 1000 |  | 
14 | CN(C)C(=O)Nc1cc(Oc2ccc(NC(=O)NC(=O)C3(C)CC3)nc2)ccn1 [Example 50, N-((5-((2-(3,3-dimethylureido)pyridin-4-yl)oxy)pyridin-2-yl)carbamoyl)-1-methylcyclopropanecarboxamide] | < 10 | 10 to 100 | 10 to 100 | < 10 | < 10 |  | 
15 | CC(=O)Nc1cc(Oc2ccc(NC(=O)NC(=O)C3CCOC3)nc2)ccn1 (centres unmarked) [Example 22, N-((5-((2-acetamidopyridin-4-yl)oxy)pyridin-2-yl)carbamoyl)tetrahydrofuran-3-carboxamide] | 10 to 100 | > 1000 | > 1000 | 100 to 1000 | 10 to 100 |  | 
16 | O=C(NC(=O)C1CCOCC1)Nc1ccc(Oc2ccnc(NC(=O)C3CC3)c2)cn1 [Example 35, N-((5-((2-(cyclopropanecarboxamido)pyridin-4-yl)oxy)pyridin-2-yl)carbamoyl)tetrahydro-2H-pyran-4-carboxamide] | < 10 | 100 to 1000 | < 10 | < 10 | < 10 |  | 
17 | Cn1cnc(C(=O)Nc2cc(Oc3ccc(NC(=O)NC(=O)C(C)(C)C)nc3)ccn2)c1 [Example 59, 1-methyl-N-(4-((6-(3-pivaloylureido)pyridin-3-yl)oxy)pyridin-2-yl)-1H-imidazole-4-carboxamide] | < 10 | 100 to 1000 | 100 to 1000 | < 10 | < 10 |  | 
18 | CN(C)C1CC(C(=O)Nc2cc(Oc3ccc(NC(=O)NC(=O)C(C)(C)C)nc3)ccn2)C1 (centres unmarked) [Example 60, (1s,3s)-3-(dimethylamino)-N-(4-((6-(3-pivaloylureido)pyridin-3-yl)oxy)pyridin-2-yl)cyclobutanecarboxamide] | 10 to 100 | > 1000 | 100 to 1000 | 100 to 1000 | 10 to 100 |  | 
19 | CC(C)(C)C(=O)NC(=O)Nc1ccc(Oc2ccnc(NC(=O)CC#N)c2)cn1 [Example 56, N-((5-((2-(2-cyanoacetamido)pyridin-4-yl)oxy)pyridin-2-yl)carbamoyl)pivalamide] | 10 to 100 | > 1000 | 100 to 1000 | > 1000 | 100 to 1000 |  | 
20 | CN(C)C1CC(C(=O)Nc2cc(Oc3ccc(NC(=O)NC(=O)C(C)(C)C)nc3)ccn2)C1 (centres unmarked) [Example 61, (1r,3r)-3-(dimethylamino)-N-(4-((6-(3-pivaloylureido)pyridin-3-yl)oxy)pyridin-2-yl)cyclobutanecarboxamide] | 10 to 100 | > 1000 | 100 to 1000 | 100 to 1000 |  |  | 10 to 100
21 | CC(C)(C)C(=O)NC(=O)Nc1ccc(Oc2ccnc(NC(=O)C3CC3)c2)cn1 [Example 18, N-(4-((6-(3-pivaloylureido)pyridin-3-yl)oxy)pyridin-2-yl)cyclopropanecarboxamide] | < 10 | 100 to 1000 | 100 to 1000 | < 10 | < 10 |  | 
